Data reported in paper PMC9216299, “Quercetin and luteolin are single-digit micromolar inhibitors of the SARS-CoV-2 RNA-dependent RNA polymerase” (Scientific Reports, 2022).
Values after ≈ are worked out from the molar mass of the structure shown. Where two headings read alike, the source gives them in different places.

Assays:
SARS-CoV-2 RdRp = SARS-CoV-2 RdRp (Severe acute respiratory syndrome coronavirus 2, UniProt P0DTD1); assay: biochemical; settings: for inhibition at 25 µM / inhibition at 100 µM: SARS-CoV-2 RdRp; for inhibition at 25 µM: compound at 25 µM, read-out: % inhib 25 µM; for inhibition at 100 µM: compound at 100 µM, read-out: % inhib 100 µM
M^pro = settings: cited from earlier work
NTPase/helicase = settings: cited from earlier work
in vitro = settings: mouse, microsomes, pH 7.4
3CL^pro = settings: viral protease 3CLpro, cited from earlier work; for IC50: in vitro
[1] = In vitro plasma stability; settings: for stability in blood plasma (in words): mouse plasma, measured time span 120 min; for half-life at 2 µM: mouse, plasma
[2] = Aqueous kinetic solubility in PBS pH 7.4; settings: PBS neutral buffer pH 7.4, 25 °C, 24 h, target 250 µM, 2.5% DMSO
[3] = 24 h, pH 7.4

O=c1c(O)c(-c2ccc(O)c(O)c2)oc2cc(O)cc(O)c12 [Quercetin, quercetin]
inhibition at 25 µM (SARS-CoV-2 RdRp): 81% | inhibition at 100 µM (SARS-CoV-2 RdRp): 100% | activity against SARS-CoV Mpro (M^pro): active | activity against SARS-CoV NTPase/helicase (NTPase/helicase): active | half-life at 4.6 µM (in vitro): > 1 h | IC50 (3CL^pro): 24 µM | Ki (3CL^pro): ~7 µM | stability in blood plasma (in words) [1]: poorly stable | half-life at 2 µM [1]: 0.117 ± 0.0333 h | kinetic solubility (Sk) [2]: 16 ± 5 µM (≈ 4.84 µg/mL)

O=c1cc(-c2ccc(O)c(O)c2)oc2cc(O)cc(O)c12 [Luteolin, luteolin]
IC50 (SARS-CoV-2 RdRp): 4.6 ± 0.3 µM | inhibition at 25 µM (SARS-CoV-2 RdRp): 89% | inhibition at 100 µM (SARS-CoV-2 RdRp): 100% | kinetic solubility (Sk) [3]: 21 ± 4 µM (≈ 6.01 µg/mL) | half-life at 4.6 µM (in vitro): > 1 h | IC50 (3CL^pro): 20 µM | stability in blood plasma (in words) [1]: stable in the measured time span | half-life at 2 µM [1]: > 2 h
